Data on 45 molecules can be found in paper PMC6216040, “Repurposing of an old drug: In vitro and in vivo efficacies of buparvaquone against Echinococcus multilocularis” (International Journal for Parasitology: Drugs and Drug …, 2018).

Each structure is given as a SMILES string.

The assay concerns E. multilocularis metacestodes. In words: PGI-assay: drug-induced damage on in vitro cultured metacestodes (Pathogen Box screening cascade and EC50). Format: cell-based, Echinococcus multilocularis. The note with it: for PGI release, % of the Tx-100 control, 5d / PGI release, % of the Tx-100 control, 12d: 10 µM, singlets; for PGI release, % of the Tx-100 control, 5d / PGI release, % of Tx-100 control, average, 5d: 5 days of incubation; for PGI release, % of the Tx-100 control, 12d / PGI release, % of Tx-100 control, average, 12d: 12 days of incubation; for activity in the screen at 10 μM (confirmed in triplicates, >20% relative PGI release): 5 and 12 days.

Setting [1] is: confirmatory screening at 10 µM in triplicates, values as % of Tx-100 control.

For the molecule `CC(C)(C)c1cc(C(=O)N2CCN(c3nccnc3C#N)CC2)n(Cc2ccccc2)n1` [MMV023949], the “PGI release, % of the Tx-100 control, 5d” value was -0.59% and the “PGI release, % of the Tx-100 control, 12d” value is recorded as -1.14%.
In the case of `O=C(Nc1cccc(-c2ccc(NCCCN3CCCC3)nc2)c1)c1ccccc1` [MMV023953], the “PGI release, % of the Tx-100 control, 5d” value is -0.23% and the “PGI release, % of the Tx-100 control, 12d” value is -3.47%.
For `c1cncc(NCc2ccc(-c3cc4ccncc4cc3OC3CCNCC3)s2)c1` [MMV023969] the same measures were -3.87% and -3.02%.
With `COc1ccc(-c2cnc3ccc(N4CCCC4)nn23)cc1OC` [MMV023985], the “PGI release, % of the Tx-100 control, 5d” value is listed as -0.66% and the “PGI release, % of the Tx-100 control, 12d” value is reported as -1.01%.
In the case of `O=C(Nc1ccccc1)c1ccc(-c2cc3ccncc3cc2OC2CCNCC2)s1` [MMV024035], the “PGI release, % of the Tx-100 control, 5d” value came to 1.01% and the “PGI release, % of the Tx-100 control, 12d” value is listed as 1.04%.
For `NS(=O)(=O)c1cncc(-c2ccc3nccc(-c4cn[nH]c4)c3n2)c1` [MMV024101] the same measures were 0.37% and 1.27%.
For `Cc1ccc(S(=O)(=O)n2cc(-c3ccnc(N)c3)c3cc(Br)cnc32)cc1` [MMV024114] the same measures were 3.26% and 5.70%.
With `CN(C)CCNC(=O)N1CCCN(c2ncnc3cc(-c4ccccc4)sc23)CC1` [MMV024195], the “PGI release, % of the Tx-100 control, 5d” value stood at 1.72% and the “PGI release, % of the Tx-100 control, 12d” value worked out at 5.34%.
Take `Cc1ccc2[nH]c(C3CCCNC3)c(-c3ccncc3)c2c1` (stereo not shown) [MMV024311]: the “PGI release, % of the Tx-100 control, 5d” value is -0.16% and the “PGI release, % of the Tx-100 control, 12d” value is -1.97%.
With `O=C(NC1CC1)c1ccc(N2CCC(Cc3ccccc3)CC2)nc1` [MMV024397], the “PGI release, % of the Tx-100 control, 5d” value is on record as 0.75% and the “PGI release, % of the Tx-100 control, 12d” value is listed as 37.30%. Further, under setting [1], the “PGI release, % of Tx-100 control, average, 5d” value (shortened to “PGI release, % … average, 5d”) came out at 0.18% and the “PGI release, % of Tx-100 control, average, 12d” value (“PGI release, % … average, 12d” below) is on record as -0.13%.
Consider `O=C(Nc1cccc(Cl)c1)c1cnc(N2CCN(c3ccncc3)CC2)c(Cl)c1` [MMV024406], for which the “PGI release, % of the Tx-100 control, 5d” value is on record as 4.18% and the “PGI release, % of the Tx-100 control, 12d” value is reported as 4.57%.
The corresponding values for `CN(C(=O)c1cc2c(-c3cncnc3)cccc2[nH]1)c1ccccc1` [MMV024443] are -1.32% and 3.28%.
In the case of `Cc1cccc(C(=O)Nc2ccnc(N(C)C3CCN(CC(C)C)CC3)c2)c1` [MMV024829], the “PGI release, % of the Tx-100 control, 5d” value was 0.62% and the “PGI release, % of the Tx-100 control, 12d” value was -0.07%.
Regarding `O=C(Nc1ccc(N2CCNCC2)nc1)c1oc(-c2ccccc2)nc1C(F)(F)F` [MMV024937], the “PGI release, % of the Tx-100 control, 5d” value was 14.66% and the “PGI release, % of the Tx-100 control, 12d” value came out at 18.16%.
In the case of `CS(=O)(=O)c1cccc(-c2cnc3[nH]cc(-c4ccc(CCC(=O)O)cc4)c3c2)c1` [MMV026020], the “PGI release, % of the Tx-100 control, 5d” value is listed as -2.92% and the “PGI release, % of the Tx-100 control, 12d” value is reported as -0.12%.
For `Nc1nccc2ccc(Oc3ccncc3)cc12` [MMV026313] the same measures were -0.49% and -0.99%.
The corresponding values for `CCn1ncc2c(NC3CCOCC3)c(CNC(=O)c3ccnn3C)c(C)nc21` [MMV026356] are -0.13% and 0.36%.
Take `OCc1ccc(-c2cncc(Nc3cccc(Cl)c3)c2)cc1` [MMV026468]: the “activity in the screen at 10 μM (confirmed in triplicates, >20% relative PGI release)” value is given as “active”; the “PGI release, % of the Tx-100 control, 5d” value is 9.97%; the “PGI release, % of the Tx-100 control, 12d” value was 54.98%. Moreover, where the note is “1 µM, triplicates”, the “PGI release, % … average, 5d” value came to 0.57% and the “PGI release, % … average, 12d” value was -1.50%. Under setting [1], the “PGI release, % … average, 5d” value came to 0.62% and the “PGI release, % … average, 12d” value worked out at 52.89%.
`O=C(NCCc1ccccc1)c1cc(-c2cccnc2)cnc1NCC1CC1` [MMV026490]: the “PGI release, % of the Tx-100 control, 5d” value is recorded as -0.0463% and the “PGI release, % of the Tx-100 control, 12d” value is given as -0.43%.
For `CC(C)(C)CN1C(=O)C(c2ccccc2)(c2ccccc2)N=C1N` [MMV026550] the same measures were 3.21% and 3.61%.
The corresponding values for `OCCc1ccc(Nc2nccc(-c3nnc4ccccn34)n2)cc1` [MMV028694] are 1.98% and 1.79%.
For `CC(C)(CN)c1nc(-c2ccc(Cl)c(O)c2)c(-c2ccnc(N)n2)[nH]1` [MMV030734] the same measures were -0.31% and -0.25%.
As for `CNC(=O)C1Cc2c([nH]c3cc(Cl)ccc23)C2(CCN(CCc3ccccc3)CC2)N1` (stereo not shown) [MMV031011], the “PGI release, % of the Tx-100 control, 5d” value was 4.51% and the “PGI release, % of the Tx-100 control, 12d” value came to 91.49%. Further, under setting [1], the “PGI release, % … average, 5d” value is -0.91% and the “PGI release, % … average, 12d” value was -1.45%.
For `FC(F)(F)c1cccc(-c2nc3c(NCc4ccncc4)nccc3[nH]2)c1` [MMV032967], the “PGI release, % of the Tx-100 control, 5d” value is 0.25% and the “PGI release, % of the Tx-100 control, 12d” value was -2.81%.
Turning to `O=C1COCc2ccc(Br)cc2N1Cc1ccc(C(F)(F)F)cc1` [MMV032995], the “PGI release, % of the Tx-100 control, 5d” value came to 0.37% and the “PGI release, % of the Tx-100 control, 12d” value is given as 1.79%.
The corresponding values for `c1ccc(Oc2ccc(-c3cc(N4CCOCC4)n[nH]3)cc2)cc1` [MMV045105] are -0.42% and 0.07%.
`COc1cc(C(F)(F)F)nc2ccc(C)c(N)c12` [MMV047015]: the “PGI release, % of the Tx-100 control, 5d” value is listed as -0.69% and the “PGI release, % of the Tx-100 control, 12d” value was -0.79%.
For the molecule `N#Cc1ccc(-c2ccc(OCC(N)=O)cc2)cc1` [MMV053220], the “PGI release, % of the Tx-100 control, 5d” value is recorded as -4.06% and the “PGI release, % of the Tx-100 control, 12d” value is on record as -1.40%.
Turning to `CC(=O)N1CCc2cc3nc(C)cc(C)c3cc21` [MMV054312], the “PGI release, % of the Tx-100 control, 5d” value is recorded as 0.77% and the “PGI release, % of the Tx-100 control, 12d” value was -0.65%.
For `Cc1cc(C)nc(-n2nc(C)cc2Nc2ccccc2)n1` [MMV062221] the same measures were -5.83% and 1.28%.
The corresponding values for `Cc1nn(Cc2ccccc2)c(Cl)c1C(=O)NC1CCCCCC1` [MMV063404] are 0.0181% and 0.28%.
`FC(F)(F)c1nnc2ccc(Cl)nn12` [MMV069458]: the “PGI release, % of the Tx-100 control, 5d” value is -0.54% and the “PGI release, % of the Tx-100 control, 12d” value amounted to 0.02%.
The corresponding values for `O=C1N(Cc2cc3ccccc3s2)CC2CN(Cc3ccccc3)CCN12` (stereo not shown) [MMV084603] are -3.64% and 0.62%.
As to `O=C(Nc1cnc2ccccc2c1)c1cccc(-n2cnnn2)c1` [MMV084864], the “PGI release, % of the Tx-100 control, 5d” value is given as -2.18% and the “PGI release, % of the Tx-100 control, 12d” value is -3.92%.
`COc1cncc(-c2cncc(N3CCN(c4ccncc4)CC3)n2)c1` [MMV085071]: the “PGI release, % of the Tx-100 control, 5d” value is on record as 0.27% and the “PGI release, % of the Tx-100 control, 12d” value is recorded as 0.48%.
The corresponding values for `O=C(C(Cc1c[nH]c2ccccc12)NS(=O)(=O)c1ccc(Cl)cc1)N1CCCCC1` (stereo not shown) [MMV085210] are -0.40% and 0.0121%.
Consider `CCCNC(=O)N1CCC2(CC1)CC(=O)c1cc(C)ccc1O2` [MMV085230], for which the “PGI release, % of the Tx-100 control, 5d” value is on record as -0.40% and the “PGI release, % of the Tx-100 control, 12d” value is -0.0743%.
The corresponding values for `N#Cc1ccc(-c2cnc(N)c(-c3ccc(C(N)=O)cc3)n2)cc1` [MMV085499] are 7.58% and 0.90%.
Turning to `CCOC(=O)NC(=O)c1ccsc1NC(=O)c1nc2ccccc2s1` [MMV090930], the “activity in the screen at 10 μM (confirmed in triplicates, >20% relative PGI release)” value is on record as “active”; the “PGI release, % of the Tx-100 control, 5d” value is 11.85%; the “PGI release, % of the Tx-100 control, 12d” value is 28.09%. For the same molecule, where the note is “1 µM, triplicates”, the “PGI release, % … average, 5d” value is 2.46% and the “PGI release, % … average, 12d” value was 6.26%. Moreover, under setting [1], the “PGI release, % … average, 5d” value is recorded as 13.69% and the “PGI release, % … average, 12d” value is listed as 46.13%.
With `O=C(Nc1nnc(-c2ccc(Cl)cc2)o1)c1cccc(C(F)(F)F)c1` [MMV102872], the “PGI release, % of the Tx-100 control, 5d” value is reported as 32.35% and the “PGI release, % of the Tx-100 control, 12d” value is recorded as 28.26%. Also, under setting [1], the “PGI release, % … average, 5d” value was -0.31% and the “PGI release, % … average, 12d” value was -1.19%.
`CCC(C)NC(=O)c1ccc(NC(=O)C2(c3ccccc3)CCCC2)cc1` (stereo not shown) [MMV146306]: the “PGI release, % of the Tx-100 control, 5d” value is recorded as -1.42% and the “PGI release, % of the Tx-100 control, 12d” value was -5.77%.
On to `CCOC(=O)c1c(NC(=O)c2c(F)c(F)c(F)c(F)c2F)sc(C(N)=O)c1C` [MMV153413], for which the “PGI release, % of the Tx-100 control, 5d” value is given as 1.93% and the “PGI release, % of the Tx-100 control, 12d” value was 9.70%.
The corresponding values for `Cc1cc(Cl)ccc1NC(=O)CCc1ccc(S(=O)(=O)NCC(C)C)cc1` [MMV161996] are -0.05% and 0.10%.
For `CNC(=O)C1Cc2ccccc2N1C(=O)Cc1ccc(F)cc1` (stereo not shown) [MMV188296] the same measures were -0.45% and -0.28%.
For `COc1ccc(C2(C(=O)Nc3ccc(Br)cc3)CCCC2)cc1` [MMV200748] the same measures were -1.03% and -1.33%.
